Assay results published in patent publication US20050112573A1, “Method of detecting toxic substance” (priority 2001, published 2005).

Test system: yeast genes (level of expressed mRNA)
Assay: DNA chip analysis of expressed mRNA of yeast genes after 2 h culture with a toxic chemical substance
Assay type: cell-based, Saccharomyces cerevisiae S288C
Settings: for The level of expressed mRNA in the presence of chemical substance/ (ratio to absence of chemical substance): stress protein genes, DNA chip
Description: Yeast (Saccharomyces cerevtisiae S288C (α SUC2mal mel gap2 CUP1)) were cultured at 25° C. on YPD medium (yeast extract 1%, polypepton 2%, glucose 2%). One of toxic chemical substances was added to the cell at logarithmic growth phase, and the cell was further cultured for two hours. Cell was cultured without any chemical substance in the same condition, and was used as control. Concentrations of the chemical substances were defined to inhibit the growth of the yeast but not lead to death.
After the completion of cultivation, the culture was centrifuged to collect the cells. To the cells, sodium acetate buffer (50 mM sodium acetate, 10 mM EDTA, 1% SDS) was added, and the mixture was shaken at 65° C. for five minutes, followed by returning to room temperature, and obtaining the supernatant, which procedure was repeated two times. To the supernatant, ½ amount of a solution of phenol/chloroform was added, and the mixture was centrifuged to give a supernatant, which was added with an equal amount of chloroform, and the mixture was centrifuged to give a supernatant. To the supernatant, an equal amount of isopropanol containing 0.3 M sodium acetate was added, and the mixture was allowed to stand at room temperature for 30 minutes, after which the mixture was centrifuged to give a sediment of the whole RNAs. Seventy % ethanol was added to the sediment, and the mixture was again centrifuged to give a sediment, which was then dried and dissolved in water. mRNA was isolated from the whole RNAs as followings. In view of the fact that a poly A chain is attached to the 3′ terminus of mRNA, a polynucleotide having a poly T structure which was immobilized on the surface of latex beads was used to trap the mRNA, and then the mRNA was washed and eluted with spine column (Oligotex-dT30<Super>mRNA Purification Kit, Takara). Reverse transcription of the mRNA was conducted with a reverse transcriptase (Super Script II Reverse Transcriptase; catalogue No. 18064-014, GibcoBRL) using fluorescence-labeled nucleotides to give cDNAs that were introduced with Cy3-dUTP or Cy5-dUTP during the reverse transcription.
The labeled cDNAs were dissolved in TE buffer (10 mM Tris-HCl/1 mM EDTA, pH8.0), and the solution was dropped on the DNA chip containing the whole genes of yeast (DNA Chip Research Inc. Japan) so that the cDNAs were hybridized on the DNA chip at 65° C. for over 12 hours. The fluoresces intensity of the DNA chip was read with a scanner, and the ratio relative to the fluorescence intensity resulting from the absence of chemical substance was estimated as the following, which is shown in Tables 1 to 9: [formula]
In the Tables, “Intensity” indicated in the rightmost column is a value of the level of expressed mRNA of each gene in control cells as divided by the average level of the expressions of the whole genes.

## CCCCCCCCCCCCOS(=O)(=O)[O-].[Na+] [(18), sodium lauryl sulfate]
Yeast gene YDL078C, ratio of DNA chip fluorescence intensity to that without chemical substance
  The level of expressed mRNA in the presence of chemical substance/ in its absence, gene YDL078C: 2.0
Yeast gene YDL215C, ratio of DNA chip fluorescence intensity to that without chemical substance
  The level of expressed mRNA in the presence of chemical substance/ (in its absence), gene YDL215C: 1.6
Yeast gene YDL238C
  The level of expressed mRNA in the presence of chemical substance/The level of expressed mRNA in the absence of chemical substance: 1.3
Yeast gene YDR055W
  The level of expressed mRNA in the presence of chemical substance/The level of expressed mRNA in the absence of chemical substance: 1.9
Yeast gene YDR073W, ratio of DNA chip fluorescence intensity to that without chemical substance
  The level of expressed mRNA in the presence of chemical substance/ (in its absence), gene YDR073W: 2.3
Yeast gene YDR079W, energy system protein genes, 2 h culture with the chemical, ratio to control without chemical
  The level of expressed mRNA in the presence of chemical substance/ in its absence, gene YDR079W: 1.3
Yeast gene YDR079W, mitochondria-located protein genes, 2 h culture with chemical
  The level of expressed mRNA in the presence of chemical substance/ (ratio to absence), gene YDR079W: 1.3
Yeast gene YDR084C
  The level of expressed mRNA in the presence of chemical substance/The level of expressed mRNA in the absence of chemical substance: 1.3
Yeast gene YDR085C
  The level of expressed mRNA in the presence of chemical substance/The level of expressed mRNA in the absence of chemical substance: 1.8
Yeast gene YDR104C
  The level of expressed mRNA in the presence of chemical substance/The level of expressed mRNA in the absence of chemical substance: 1.0
Yeast gene YDR115W
  The level of expressed mRNA in the presence of chemical substance/The level of expressed mRNA in the absence of chemical substance: 1.4
Yeast gene YDR259C
  The level of expressed mRNA in the presence of chemical substance/The level of expressed mRNA in the absence of chemical substance: 0.8
Yeast gene YDR297W, ratio of DNA chip fluorescence intensity to that without chemical substance
  The level of expressed mRNA in the presence of chemical substance/ (in its absence), gene YDR297W: 1.9
Yeast gene YDR315C
  The level of expressed mRNA in the presence of chemical substance/The level of expressed mRNA in the absence of chemical substance: 1.2
Yeast gene YDR358W
  The level of expressed mRNA in the presence of chemical substance/The level of expressed mRNA in the absence of chemical substance: 1.9
Yeast gene YDR377W, mitochondria-located protein genes, 2 h culture with chemical
  The level of expressed mRNA in the presence of chemical substance/ (ratio to absence), gene YDR377W: 2.5
Yeast gene YDR387C, ratio of DNA chip fluorescence intensity to that without chemical substance
  The level of expressed mRNA in the presence of chemical substance/ (in its absence), gene YDR387C: 1.1
Yeast gene YDR388W
  The level of expressed mRNA in the presence of chemical substance/The level of expressed mRNA in the absence of chemical substance: 1.3
Yeast gene YDR432W
  The level of expressed mRNA in the presence of chemical substance/The level of expressed mRNA in the absence of chemical substance: 0.7
Yeast gene YDR481C
  The level of expressed mRNA in the presence of chemical substance/The level of expressed mRNA in the absence of chemical substance: 1.4
Yeast gene YDR510W
  The level of expressed mRNA in the presence of chemical substance/The level of expressed mRNA in the absence of chemical substance: 1.5
Yeast gene YEL039C
  The level of expressed mRNA in the presence of chemical substance/ (ratio to absence of chemical substance): 1.1
Yeast gene YEL042W
  The level of expressed mRNA in the presence of chemical substance/The level of expressed mRNA in the absence of chemical substance: 0.8
Yeast gene YEL066W
  The level of expressed mRNA in the presence of chemical substance/The level of expressed mRNA in the absence of chemical substance: 1.1
Yeast gene YER015W, ratio of DNA chip fluorescence intensity to that without chemical substance
  The level of expressed mRNA in the presence of chemical substance/ (in its absence), gene YER015W: 2.6
Yeast gene YER039C
  The level of expressed mRNA in the presence of chemical substance/The level of expressed mRNA in the absence of chemical substance: 1.1
Yeast gene YER057C
  The level of expressed mRNA in the presence of chemical substance/ (ratio to absence of chemical substance): 1.8
Yeast gene YER107C
  The level of expressed mRNA in the presence of chemical substance/The level of expressed mRNA in the absence of chemical substance: 1.2
Yeast gene YER130C
  The level of expressed mRNA in the presence of chemical substance/The level of expressed mRNA in the absence of chemical substance: 2.5
Yeast gene YFL028C
  The level of expressed mRNA in the presence of chemical substance/The level of expressed mRNA in the absence of chemical substance: 1.5
Yeast gene YFL043C
  The level of expressed mRNA in the presence of chemical substance/The level of expressed mRNA in the absence of chemical substance: 1.2
Yeast gene YGL035C, ratio of DNA chip fluorescence intensity to that without chemical substance
  The level of expressed mRNA in the presence of chemical substance/ (in its absence), gene YGL035C: 1.2
Yeast gene YGL115W, ratio of DNA chip fluorescence intensity to that without chemical substance
  The level of expressed mRNA in the presence of chemical substance/ (in its absence), gene YGL115W: 1.2
Yeast gene YGL115W
  The level of expressed mRNA in the presence of chemical substance/ (ratio to absence of chemical substance): 1.2
Yeast gene YGL158W
  The level of expressed mRNA in the presence of chemical substance/The level of expressed mRNA in the absence of chemical substance: 1.1
Yeast gene YGL187C, mitochondria-located protein genes, 2 h culture with chemical
  The level of expressed mRNA in the presence of chemical substance/ (ratio to absence), gene YGL187C: 2.4
Yeast gene YGL205W, ratio of DNA chip fluorescence intensity to that without chemical substance
  The level of expressed mRNA in the presence of chemical substance/ (in its absence), gene YGL205W: 9.1
Yeast gene YGL229C
  The level of expressed mRNA in the presence of chemical substance/The level of expressed mRNA in the absence of chemical substance: 0.9
Yeast gene YGR062C, energy system protein genes, 2 h culture with the chemical, ratio to control without chemical
  The level of expressed mRNA in the presence of chemical substance/ in its absence, gene YGR062C: 1.1
Yeast gene YGR062C, mitochondria-located protein genes, 2 h culture with chemical
  The level of expressed mRNA in the presence of chemical substance/ (ratio to absence), gene YGR062C: 1.1
Yeast gene YGR096W, ratio of DNA chip fluorescence intensity to that without chemical substance
  The level of expressed mRNA in the presence of chemical substance/ (in its absence), gene YGR096W: 1.0
Yeast gene YGR136W
  The level of expressed mRNA in the presence of chemical substance/The level of expressed mRNA in the absence of chemical substance: 1.8
Yeast gene YGR189C
  The level of expressed mRNA in the presence of chemical substance/The level of expressed mRNA in the absence of chemical substance: 1.7
Yeast gene YGR213C
  The level of expressed mRNA in the presence of chemical substance/The level of expressed mRNA in the absence of chemical substance: 8.5
Yeast gene YGR257C
  The level of expressed mRNA in the presence of chemical substance/The level of expressed mRNA in the absence of chemical substance: 1.3
Yeast gene YGR287C, ratio of DNA chip fluorescence intensity to that without chemical substance
  The level of expressed mRNA in the presence of chemical substance/ (in its absence), gene YGR287C: 1.1
Yeast gene YGR288W, ratio of DNA chip fluorescence intensity to that without chemical substance
  The level of expressed mRNA in the presence of chemical substance/ (in its absence), gene YGR288W: 1.3
Yeast gene YHL028W
  The level of expressed mRNA in the presence of chemical substance/ (ratio to absence of chemical substance): 2.5
Yeast gene YHL046C
  The level of expressed mRNA in the presence of chemical substance/ (ratio to absence of chemical substance): 0.9
Yeast gene YHR004C
  The level of expressed mRNA in the presence of chemical substance/The level of expressed mRNA in the absence of chemical substance: 1.6
Yeast gene YHR071W
  The level of expressed mRNA in the presence of chemical substance/The level of expressed mRNA in the absence of chemical substance: 1.0
Yeast gene YHR139C
  The level of expressed mRNA in the presence of chemical substance/The level of expressed mRNA in the absence of chemical substance: 1.3
Yeast gene YHR142W
  The level of expressed mRNA in the presence of chemical substance/The level of expressed mRNA in the absence of chemical substance: 1.3
Yeast gene YHR210C, ratio of DNA chip fluorescence intensity to that without chemical substance
  The level of expressed mRNA in the presence of chemical substance/ (in its absence), gene YHR210C: 1.2
Yeast gene YIL006W, ratio of DNA chip fluorescence intensity to that without chemical substance
  The level of expressed mRNA in the presence of chemical substance/ (in its absence), gene YIL006W: 0.9
Yeast gene YIL011W
  The level of expressed mRNA in the presence of chemical substance/ (ratio to absence of chemical substance): 0.8
Yeast gene YIL123W
  The level of expressed mRNA in the presence of chemical substance/The level of expressed mRNA in the absence of chemical substance: 1.0
